The target of assay [1] is T1, HSA (Homo sapiens, UniProt P02768). In words: Three-dye. In kind it is binding. As to conditions: three dyes 8 μM each on HSA 25 μM.
The target of assay [2] is T1, HSA. Briefly: switchSENSE molecular dynamics mode. As to conditions: compound concentration tenfold higher than KD.

T1 sequence (P02768 25-609): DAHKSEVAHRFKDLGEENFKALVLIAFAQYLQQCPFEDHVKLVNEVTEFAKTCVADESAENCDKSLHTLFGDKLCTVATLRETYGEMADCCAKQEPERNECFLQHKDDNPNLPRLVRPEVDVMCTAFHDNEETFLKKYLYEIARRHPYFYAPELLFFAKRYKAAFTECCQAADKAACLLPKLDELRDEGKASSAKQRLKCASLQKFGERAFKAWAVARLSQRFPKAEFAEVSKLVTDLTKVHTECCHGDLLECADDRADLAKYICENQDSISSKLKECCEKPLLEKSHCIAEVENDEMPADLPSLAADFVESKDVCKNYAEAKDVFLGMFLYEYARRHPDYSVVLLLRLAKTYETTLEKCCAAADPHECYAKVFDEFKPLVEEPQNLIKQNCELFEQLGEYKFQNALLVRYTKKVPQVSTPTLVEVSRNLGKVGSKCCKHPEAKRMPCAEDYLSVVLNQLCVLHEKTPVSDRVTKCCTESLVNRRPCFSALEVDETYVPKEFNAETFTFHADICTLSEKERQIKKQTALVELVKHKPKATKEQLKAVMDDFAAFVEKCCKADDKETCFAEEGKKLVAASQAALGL

In the case of `CCC(Cc1c(I)cc(I)c(O)c1I)C(=O)O` (stereo not drawn) [Iophenoxic acid, iophenoxic acid], in assay [1], the “displacement of dimethylamino-BODIPY 5 a (Sudlow-site II probe)” value is recorded as “competitive” and the “displacement of warfarin derivative 8 a (Sudlow-site I probe)” value is recorded as “competitive”.
Take `O=C(O)CCNC(=O)c1ccc(/N=N/c2ccc(O)c(C(=O)O)c2)cc1` [balsalazide]: in assay [1], the “displacement of NBD-FA (fatty acid binding site probe)” value is recorded as “same behavior”, the “displacement of dimethylamino-BODIPY 5 a (Sudlow-site II probe)” value is recorded as “same behavior” and the “displacement of warfarin derivative 8 a (Sudlow-site I probe)” value is given as “same behavior”.
As to “(7‐nitrobenz‐2‐oxa‐1,3‐diazol‐4‐yl)‐C12 fatty acid [NBD‐FA]”, the “conformational change of HSA upon binding (molecular dynamics mode)” value in assay [2] is on record as “significant expansion”.

(Values after PMC7318646 (Chemmedchem, 2020).)
